Assay results taken from US9376396B2, “Acylaminocycloalkyl compounds suitable for treating disorders that respond to modulation of dopamine D3 receptor” (AbbVie Deutschland GmbH & Co. KG, priority 2012, dated 2016).
pKi: −log10 of the molar value.

How the values were obtained:
[1] = Determination of the microsomal half-life / microsomal clearance, rat; assay type: in vitro ADME; conditions: rat liver microsomes, 0.5 μM test substance, 0.25 mg microsomal protein/ml, NADPH, 37° C.
Description: (§1) The metabolic stability of the compounds of the invention was determined in the following assay.
(§2) The test substances were incubated in a concentration of 0.5 μM as follows:
(§3) 0.5 μM test substance are preincubated together with liver microsomes from different species (from rat, human or other species) (0.25 mg of microsomal protein/ml) in 0.05 M potassium phosphate buffer of pH 7.4 in microtiter plates at 37° C. for 5 min. The reaction is started by adding NADPH (1 mg/mL). After 0, 5, 10, 15, 20 and 30 min, 50 μl aliquots are removed, and the reaction is immediately stopped and cooled with the same volume of acetonitrile. The samples are frozen until analyzed. The remaining concentration of undegraded test substance is determined by MSMS. The half-life (T½) is determined from the gradient of the signal of test substance/unit time plot, it being possible to calculate the half-life of the test substance, assuming first order kinetics, from the decrease in the concentration of the compound with time. The microsomal clearance (mCl) is calculated from mCl=ln 2/T½/(content of microsomal protein in mg/ml)×1000 [ml/min/mg] (modified from references: Di, The Society for Biomoleculur Screening, 2003, 453-462; Obach, DMD, 1999 vol 27. N 11, 1350-1359).

[2] = Determination of the microsomal half-life / microsomal clearance, human; assay type: in vitro ADME; conditions: human liver microsomes, 0.5 μM test substance, 0.25 mg microsomal protein/ml, NADPH, 37° C.
Description: as §1, §2, §3

[3] = molecular target: T1, human dopamine D3 receptors (Homo sapiens, UniProt P35462); experiment: Receptor binding study, dopamine D3 receptor ([125I]-iodosulpride displacement); conditions: membranes of HEK-293 cells, 0.1 nM [125I]-iodosulpride, 25° C., 60 minutes
T1 construct: expressed in transfected cells; host or cells: HEK-293
Description: (§4) The substance to be tested was either dissolved in methanol/Chremophor® (BASF SE) or in dimethyl sulfoxide and then diluted with water to the desired concentration.
(§5) Each assay mixture was run in triplicate. • The incubation buffer contained 50 mM tris, 120 mM NaCl, 5 mM KCl, 2 mM CaCl2, 2 mM MgCl2 and 0.1% bovine serum albumin, 10 μM quinolone and 0.1% ascorbic acid (prepared fresh daily). […] Each assay mixture was run in triplicate. • The incubation buffer contained 50 mM tris, 120 mM NaCl, 5 mM KCl, 2 mM CaCl2, 2 mM MgCl2 and 0.1% bovine serum albumin. The buffer was adjusted to pH 7.4 with HCl. c) Measurement and Analysis: • After having been incubated at 25° C. for 60 minutes, the assay mixtures were filtered through a Whatman GF/B glass fiber filter under vacuum using a cell collecting device. The filters were transferred to scintillation viols using a filter transfer system. After 4 ml of Ultima Gold® (Packard) have been added, the samples were shaken for one hour and the radioactivity was then counted in a Beta-Counter (Packard, Tricarb 2000 or 2200CA).

[4] = molecular target: T2, human dopamine D2L receptors (long isoform) (Homo sapiens, UniProt P14416); experiment: Receptor binding study, dopamine D2L receptor ([125I]iodospiperone displacement), selectivity vs D3; conditions: selectivity ratio, HEK-293 membranes
T2 construct: expressed in transfected cells; host or cells: HEK-293
Description: as §4, §5

T1 sequence (P35462 whole entry): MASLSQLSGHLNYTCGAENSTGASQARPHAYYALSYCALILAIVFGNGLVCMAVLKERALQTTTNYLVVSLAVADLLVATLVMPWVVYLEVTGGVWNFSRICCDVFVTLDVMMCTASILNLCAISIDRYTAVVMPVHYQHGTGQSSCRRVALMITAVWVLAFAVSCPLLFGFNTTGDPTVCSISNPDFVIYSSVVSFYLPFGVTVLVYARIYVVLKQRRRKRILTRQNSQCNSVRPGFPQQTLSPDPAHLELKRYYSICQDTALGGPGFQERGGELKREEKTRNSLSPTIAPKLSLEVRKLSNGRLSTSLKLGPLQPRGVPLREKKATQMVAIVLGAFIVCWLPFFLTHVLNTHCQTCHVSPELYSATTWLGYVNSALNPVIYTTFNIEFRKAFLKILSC
T2 sequence (P14416 whole entry, canonical isoform): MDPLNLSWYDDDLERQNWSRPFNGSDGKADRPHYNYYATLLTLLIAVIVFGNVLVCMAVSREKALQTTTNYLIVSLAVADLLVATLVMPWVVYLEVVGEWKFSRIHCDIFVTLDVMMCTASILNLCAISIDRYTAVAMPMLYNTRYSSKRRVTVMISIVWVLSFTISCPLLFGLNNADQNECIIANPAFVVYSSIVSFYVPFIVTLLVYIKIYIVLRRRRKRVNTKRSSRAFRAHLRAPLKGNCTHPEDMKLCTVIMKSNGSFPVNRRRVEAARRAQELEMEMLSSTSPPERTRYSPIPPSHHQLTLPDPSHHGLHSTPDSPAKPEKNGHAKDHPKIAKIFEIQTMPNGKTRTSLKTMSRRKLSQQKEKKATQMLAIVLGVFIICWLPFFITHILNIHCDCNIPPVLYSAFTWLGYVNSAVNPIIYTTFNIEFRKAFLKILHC

SMILES | Rat mCl [1] | Human mCl [2] | pKi [3] | D2/D3 (Ki (D2L)/Ki (D3)) [4]
COCCc1cc(N2CCN(CC[C@H]3CC[C@@H](NC(C)=O)CC3)CC2)nc(C(C)(C)C)n1 [Compound 3, cis-N-[4-(2-{4-[2-tert-Butyl-6-(2-methoxy-ethyl)-pyrimidin-4-yl]-piperazin-1-yl}-ethyl)-cyclohexyl]-acetamide] | + (+: 20-120 μl min^−1 mg^−1) | + (+: 20-120 μl min^−1 mg^−1) | – | –
COCCc1cc(N2CCN(CC[C@H]3C[C@@H](NC(C)=O)C3)CC2)nc(C(C)(C)C)n1.O=C(O)C(F)(F)F [Compound 4a, cis-N-[3-(2-{4-[2-tert-Butyl-6-(2-methoxy-ethyl)-pyrimidin-4-yl]-piperazin-1-yl}-ethyl)-cyclobutyl]-acetamide trifluoroacetate] | + (+: 20-120 μl min^−1 mg^−1) | + (+: 20-120 μl min^−1 mg^−1) | – | –
COCCc1cc(N2CCN(CC[C@H]3C[C@H](NC(C)=O)C3)CC2)nc(C(C)(C)C)n1.O=C(O)C(F)(F)F [Compound 4b, trans-N-[3-(2-{4-[2-tert-Butyl-6-(2-methoxy-ethyl)-pyrimidin-4-yl]-piperazin-1-yl}-ethyl)-cyclobutyl]-acetamide trifluoroacetate] | + (+: 20-120 μl min^−1 mg^−1) | + (+: 20-120 μl min^−1 mg^−1) | > 7.30 | +++ (+++>50)
COCCc1cc(N2CCN(CC[C@H]3CC[C@H](NC(C)=O)CC3)[C@H](C)C2)nc(C(C)(C)C)n1 [Compound 5, trans-N-[4-(2-{(2R)-4-[2-tert-Butyl-6-(2-methoxy-ethyl)-pyrimidin-4-yl]-2-methyl-piperazin-1-yl}-ethyl)-cyclohexyl]-acetamide] | + (+: 20-120 μl min^−1 mg^−1) | + (+: 20-120 μl min^−1 mg^−1) | > 7.30 | +++ (+++>50)
COCCc1cc(N2CCN(CC[C@@H]3CC[C@@H](NC(C)=O)C3)CC2)nc(C(C)(C)C)n1 [Compound 14, trans-N-[(1R,3S)-3-[2-[4-[2-tert-butyl-6-(2-methoxyethyl)pyrimidin-4-yl]piperazin-1-yl]ethyl]cyclopentyl]acetamide] | + (+: 20-120 μl min^−1 mg^−1) | + (+: 20-120 μl min^−1 mg^−1) | > 7.30 | +++ (+++>50)
COCCc1cc(N2CCN(CC[C@@H]3CC[C@H](NC(C)=O)C3)CC2)nc(C(C)(C)C)n1 [Compound 16, cis-N-[(1S,3S)-3-[2-[4-[2-tert-butyl-6-(2-methoxyethyl)pyrimidin-4-yl]piperazin-1-yl]ethyl]cyclopentyl]acetamide] | + (+: 20-120 μl min^−1 mg^−1) | + (+: 20-120 μl min^−1 mg^−1) | > 7.30 | +++ (+++>50)
COCCc1cc(N2CCN(CC[C@H]3C[C@@H](NC=O)C3)CC2)nc(C(C)(C)C)n1 [Compound 17, N-[cis-3-[2-[4-[2-tert-butyl-6-(2-methoxyethyl)pyrimidin-4-yl]piperazin-1-yl]ethyl]cyclobutyl]formamide] | + (+: 20-120 μl min^−1 mg^−1) | + (+: 20-120 μl min^−1 mg^−1) | > 7.30 | ++ (++>20)
COCCc1cc(N2CCN(CC[C@H]3C[C@H](NC=O)C3)CC2)nc(C(C)(C)C)n1 [Compound 18, N-[trans-3-[2-[4-[2-tert-butyl-6-(2-methoxyethyl)pyrimidin-4-yl]piperazin-1-yl]ethyl]cyclobutyl]formamide] | ∘ (∘: >120 μl min^−1 mg^−1) | + (+: 20-120 μl min^−1 mg^−1) | > 7.30 | ++ (++>20)
COCCc1cc(N2CCN(CC[C@H]3CC[C@H](NC=O)CC3)C[C@H]2C)nc(C(C)(C)C)n1 [Compound 19, trans-N-[4-[2-[(3R)-4-[2-tert-butyl-6-(2-methoxyethyl)pyrimidin-4-yl]-3-methyl-piperazin-1-yl]ethyl]cyclohexyl]formamide] | – | + (+: 20-120 μl min^−1 mg^−1) | > 7.30 | +++ (+++>50)
COCc1cc(N2CCN(CC[C@H]3CC[C@H](NC=O)CC3)CC2)nc(C(C)(C)C)n1 [Compound 21, trans-N-[4-[2-[4-[2-tert-butyl-6-(methoxymethyl)pyrimidin-4-yl]piperazin-1-yl]ethyl]cyclohexyl]formamide] | – | + (+: 20-120 μl min^−1 mg^−1) | – | –
CC(=O)N[C@H]1CC[C@H](CCN2CCN(c3cc(CO)nc(C(C)(C)C)n3)CC2)CC1 [Compound 22, trans-N-[4-[2-[4-[2-tert-butyl-6-(hydroxymethyl)pyrimidin-4-yl]piperazin-1-yl]ethyl]cyclohexyl]acetamide] | + (+: 20-120 μl min^−1 mg^−1) | + (+: 20-120 μl min^−1 mg^−1) | > 7.30 | +++ (+++>50)
CC(=O)N[C@H]1CC[C@H](CCN2CCN(c3cc(CCO)nc(C(C)(C)C)n3)C[C@H]2C)CC1 [Compound 26, trans-N-[4-[2-[(2R)-4-[2-tert-butyl-6-(2-hydroxyethyl)pyrimidin-4-yl]-2-methyl-piperazin-1-yl]ethyl]cyclohexyl]acetamide] | + (+: 20-120 μl min^−1 mg^−1) | + (+: 20-120 μl min^−1 mg^−1) | – | –

More lines, now with the values ahead:

Rat mCl [1] | Human mCl [2] | pKi [3] | D2/D3 (Ki (D2L)/Ki (D3)) [4] | SMILES
+ (+: 20-120 μl min^−1 mg^−1) | + (+: 20-120 μl min^−1 mg^−1) | > 8.00 | +++ (+++>50) | COCCc1cc(N2CCN(CC[C@H]3CC[C@H](NC(C)=O)CC3)C[C@@H]2C)nc(C(C)(C)C)n1 [Compound 8, trans-N-[4-(2-{(3S)-4-[2-tert-Butyl-6-(2-methoxy-ethyl)-pyrimidin-4-yl]-3-methyl-piperazin-1-yl}-ethyl)-cyclohexyl]-acetamide]
– | – | > 8.00 | ++ (++>20) | CC(=O)N[C@H]1CC[C@@H](CCN2CCN(c3cc(CCOC(F)(F)F)nc(C(C)(C)C)n3)CC2)CC1 [Compound 10a, cis N-[4-(2-{4-[2-tert-Butyl-6-(2-trifluoromethoxy-ethyl)-pyrimidin-4-yl]-piperazin-1-yl}-ethyl)-cyclohexyl]-acetamide]
∘ (∘: >120 μl min^−1 mg^−1) | + (+: 20-120 μl min^−1 mg^−1) | > 8.00 | + (+>10) | CC(=O)N[C@H]1CC[C@H](CCN2CCN(c3cc(CCOC(F)(F)F)nc(C(C)(C)C)n3)CC2)CC1 [Compound 10b, trans N-[4-(2-{4-[2-tert-Butyl-6-(2-trifluoromethoxy-ethyl)-pyrimidin-4-yl]-piperazin-1-yl}-ethyl)-cyclohexyl]-acetamide]
+ (+: 20-120 μl min^−1 mg^−1) | + (+: 20-120 μl min^−1 mg^−1) | > 8.00 | ++ (++>20) | COCCc1cc(N2CCN(CCC3CC(NC=O)C3)CC2)nc(C(C)(C)C)n1.O=C(O)C(F)(F)F (stereo not drawn) [Compound 12, N-[3-(2-{4-[2-tert-Butyl-6-(2-methoxy-ethyl)-pyrimidin-4-yl]-piperazin-1-yl}-ethyl)-cyclobutyl]-formamide trifluoroacetate]
+ (+: 20-120 μl min^−1 mg^−1) | + (+: 20-120 μl min^−1 mg^−1) | > 8.00 | +++ (+++>50) | COCCc1cc(N2CCN(CC[C@H]3CC[C@H](NC(C)=O)C3)CC2)nc(C(C)(C)C)n1 [Compound 15, trans-N-[(1S,3R)-3-[2-[4-[2-tert-butyl-6-(2-methoxyethyl)pyrimidin-4-yl]piperazin-1-yl]ethyl]cyclopentyl]acetamide]
+ (+: 20-120 μl min^−1 mg^−1) | + (+: 20-120 μl min^−1 mg^−1) | > 8.00 | +++ (+++>50) | COCCc1cc(N2CCN(CC[C@H]3CC[C@H](NC=O)CC3)C[C@@H]2C)nc(C(C)(C)C)n1 [Compound 20, trans-N-[4-[2-[(3S)-4-[2-tert-butyl-6-(2-methoxyethyl)pyrimidin-4-yl]-3-methyl-piperazin-1-yl]ethyl]cyclohexyl]formamide]
